Data on 21 compounds can be found in PubChem BioAssay AID192 (DTP/NCI, 2004).

The assay relates to BDF1 mice, B16 melanoma ip, median survival T/C. As to the kind of experiment: NCI In Vivo Anticancer Drug Screen. Data for tumor model B16 Melanoma (intraperitoneal) in B6D2F1 (BDF1) mice. The note with it: endpoint: median survival time, higher = longer survival. The procedure:
The antitumor activity of compounds was measured in mice bearing transplantable tumors. Survival or tumor size were measured and the results are expressed as the measurement made in the treated group (T) divided by the measurement made in the vehicle treated control group (C). The tumor model used in this assay is B16 Melanoma (intraperitoneal) in B6D2F1 (BDF1) mice

[1] abbreviates: dose: 6.25 mg/kg/injection, schedule: Q01DX009 (ip), vehicle: saline with Tween-80.
Where [2] appears, read: dose: 12.5 mg/kg/injection, schedule: Q01DX009 (ip), vehicle: saline with Tween-80.
The mark [3] stands for this setting: dose: 100.0 mg/kg/injection, schedule: Q01DX009 (ip), vehicle: Klucel (hydroxypropylcellulose) (HPC).
Setting [4] is: dose: 200.0 mg/kg/injection, schedule: Q01DX009 (ip), vehicle: Klucel (hydroxypropylcellulose) (HPC).
Setting [5] is: dose: 400.0 mg/kg/injection, schedule: Q01DX009 (ip), vehicle: Klucel (hydroxypropylcellulose) (HPC).
Setting [6] is: dose: 50.0 mg/kg/injection, schedule: Q01DX009 (ip), vehicle: Klucel (hydroxypropylcellulose) (HPC).
Where [7] appears, read: dose: 2.5 mg/kg/injection, schedule: Q01DX009 (ip), vehicle: Klucel (hydroxypropylcellulose) (HPC).
Setting [8] is: dose: 5.0 mg/kg/injection, schedule: Q01DX009 (ip), vehicle: Klucel (hydroxypropylcellulose) (HPC).
The mark [9] stands for this setting: dose: 10.0 mg/kg/injection, schedule: Q01DX009 (ip), vehicle: Klucel (hydroxypropylcellulose) (HPC).
[10] abbreviates: dose: 50.0 mg/kg/injection, schedule: Q01DX009 (ip), vehicle: saline with Tween-80.
The mark [11] stands for this setting: dose: 25.0 mg/kg/injection, schedule: Q01DX009 (ip), vehicle: saline with Tween-80.
The mark [12] stands for this setting: dose: 100.0 mg/kg/injection, schedule: Q01DX009 (ip), vehicle: saline with Tween-80.

Several values for one entry are separate records, joined by “and”; a condition that tells them apart may be missing. Identical values can stand only once. Toxic doses and inconclusive results are not listed.

With `COc1ccc(C2=CC(=O)N(C(C)C)C2=O)cc1`, the T/C was 109 % of control (dose: 20.0 mg/kg/injection, schedule: Q04DX003 (ip), vehicle: saline with Tween-80); 113 % of control (dose: 40.0 mg/kg/injection, schedule: Q04DX003 (ip), vehicle: saline with Tween-80); 111 % of control (dose: 80.0 mg/kg/injection, schedule: Q04DX003 (ip), vehicle: saline with Tween-80).

For `S=C=NCCCCCCCCCCCCN=C=S`, the T/C is 99 % of control (dose: 3.12 mg/kg/injection, schedule: Q01DX009 (ip), vehicle: saline with Tween-80); 86 % of control under setting [1]; 98 % of control under setting [2].

For `CCN1C=C/C(=C\C=C/c2cc[n+](CC)c3ccccc23)c2ccccc21`, the T/C (dose: 6.0 micrograms/kg/injection, schedule: Q01DX009 (ip), vehicle: saline) is 106 % of control; the T/C (dose: 12.0 micrograms/kg/injection, schedule: Q01DX009 (ip), vehicle: saline) is 110 % of control; the T/C (dose: 25.0 micrograms/kg/injection, schedule: Q01DX009 (ip), vehicle: saline) is 115 % of control; the T/C (dose: 50.0 micrograms/kg/injection, schedule: Q01DX009 (ip), vehicle: saline) is 106 % of control.

With `COc1ccc(CSCC(NC(=O)OC(C)(C)C)C(=O)O)cc1` (stereo not drawn), the T/C under setting [3] is 110 % of control, the T/C under setting [4] is 97 % of control and the T/C under setting [5] was 95 % of control.

On to `Nc1c(Br)cc2c(c1Br)Cc1cc(Cl)ccc1-2`, for which the T/C is, setting by setting: (dose: 6.25 mg/kg/injection, schedule: Q01DX009 (ip), vehicle: other) 108 % of control; (dose: 12.5 mg/kg/injection, schedule: Q01DX009 (ip), vehicle: other) 96 % of control; (dose: 25.0 mg/kg/injection, schedule: Q01DX009 (ip), vehicle: other) 96 % of control; under setting [6], 94 % of control; (dose: 50.0 mg/kg/injection, schedule: Q01DX009 (ip), vehicle: other) 89 % of control; under setting [3], 107 % of control. Further, the T/C is 94 % of control (dose: 100.0 mg/kg/injection, schedule: Q04DX003 (ip), vehicle: other) and 86 % of control (dose: 200.0 mg/kg/injection, schedule: Q04DX003 (ip), vehicle: other).

For the compound `CCOC1=C(N2CC2)C(=O)C(OCC)=C(N2CC2)C1=O`, the T/C (dose: 0.5 mg/kg/injection, schedule: Q01DX009 (ip), vehicle: saline) is 105 % of control and the T/C (dose: 2.0 mg/kg/injection, schedule: Q01DX009 (ip), vehicle: saline) is 121 % of control.

Turning to `O=C1c2ccccc2C(=O)c2c(NCCNCCO)ccc(O)c21`, the T/C (dose: 2.5 mg/kg/injection, schedule: Q01DX009 (ip), vehicle: suspension in saline) was 110 % of control; the T/C (dose: 5.0 mg/kg/injection, schedule: Q01DX009 (ip), vehicle: suspension in saline) is 119 % of control; the T/C (dose: 10.0 mg/kg/injection, schedule: Q01DX009 (ip), vehicle: suspension in saline) was 119 % of control; the T/C (dose: 20.0 mg/kg/injection, schedule: Q01DX009 (ip), vehicle: suspension in saline) is 171 % of control; the T/C (dose: 80.0 mg/kg/injection, schedule: Q01DX009 (ip), vehicle: suspension in saline) is 181 % of control.

For `CNC=O`, the T/C runs as follows: (dose: 100.0 mg/kg/injection, schedule: Q01DX009 (ip), vehicle: saline) 99 % of control; (dose: 200.0 mg/kg/injection, schedule: Q01DX009 (ip), vehicle: saline) 110 % of control.

`CCN(CC)CCCC(C)Nc1cc(C)nc(Nc2nc3cc(Cl)c(Cl)cc3[nH]2)n1` (stereo not drawn): the T/C reads like this: (dose: 1.25 mg/kg/injection, schedule: Q01DX009 (ip), vehicle: Klucel (hydroxypropylcellulose) (HPC)) 94 % of control; under setting [7], 95 % of control; under setting [8], 96 % of control; under setting [9], 91 % of control.

Take `CCOC(=O)C(C)C(=O)O` (stereo not drawn): the T/C reads like this: (dose: 12.5 mg/kg/injection, schedule: Q01DX009 (ip), vehicle: saline) 116 % of control; (dose: 25.0 mg/kg/injection, schedule: Q01DX009 (ip), vehicle: saline) 101 % of control; under setting [10], 99 % of control; (dose: 50.0 mg/kg/injection, schedule: Q01DX009 (ip), vehicle: saline) 98 % of control.

As for `C/C(=N\O)C(=O)c1ccccc1`, the T/C under setting [3] is 100 % of control, the T/C under setting [4] is 100 % of control and the T/C under setting [5] is 103 % of control.

Consider `CC(C)CC(Br)C(=O)NCC(=O)O` (stereo not drawn), for which the T/C reads like this: under setting [11], 95 % of control; under setting [10], 95 % of control.

For `CC(C)c1ccc(C(=O)CCCCl)cc1`, the T/C is, setting by setting: under setting [12], 93 % of control; (dose: 200.0 mg/kg/injection, schedule: Q01DX009 (ip), vehicle: saline with Tween-80) 86 % of control.

With `Cc1ccc(C)c(C(=O)CCCCl)c1`, the T/C runs as follows: under setting [11], 118 % of control; under setting [10], 97 % of control; under setting [12], 113 % of control.

Regarding `CCCCc1c(OC)cc(O)c2c1C(=O)c1[nH]c(C(=O)O)c(O)c(=O)c1C2=O`, the T/C by setting is: (dose: 7.5 mg/kg/injection, schedule: Q01DX009 (ip), vehicle: Klucel (hydroxypropylcellulose) (HPC)) 96 % of control; (dose: 15.0 mg/kg/injection, schedule: Q01DX009 (ip), vehicle: Klucel (hydroxypropylcellulose) (HPC)) 96 % of control.

`C=C(C)C12CC(COC(=O)c3ccccc3)C34OC5(OC1C3C1OC1(COC(=O)CCCCCCCCCCCCCCC)C(O)C1(O)C(OC(=O)c3ccccc3)C(C)C(C(C)CCCCCCC5O)C14)O2` (stereo not drawn): the T/C is 106 % of control (dose: 0.5 micrograms/kg/injection, schedule: Q01DX009 (ip), vehicle: saline); 99 % of control (dose: 1.0 micrograms/kg/injection, schedule: Q01DX009 (ip), vehicle: saline); 100 % of control (dose: 1.9 micrograms/kg/injection, schedule: Q01DX009 (ip), vehicle: saline); 109 % of control (dose: 3.8 micrograms/kg/injection, schedule: Q01DX009 (ip), vehicle: saline); 94 % of control (dose: 7.5 micrograms/kg/injection, schedule: Q01DX009 (ip), vehicle: saline); 96 % of control (dose: 15.0 micrograms/kg/injection, schedule: Q01DX009 (ip), vehicle: saline). The T/C (dose: 30.0 micrograms/kg/injection, schedule: Q01DX009 (ip), vehicle: saline) is 96 % of control.

On to `O=C(NC(Cc1ccccc1)C(=O)O)OCC1c2ccccc2-c2ccccc21` (stereo not drawn), for which the T/C reads like this: under setting [6], 106 % of control; under setting [3], 114 % of control.

As for `Cc1cc(=O)[nH]c(N/N=C/c2ccccc2)n1`, the T/C was 93 % of control (dose: 100.0 mg/kg/injection, schedule: Q04DX003 (ip), vehicle: gum acacia); 88 % of control (dose: 200.0 mg/kg/injection, schedule: Q04DX003 (ip), vehicle: gum acacia); 88 % of control (dose: 400.0 mg/kg/injection, schedule: Q04DX003 (ip), vehicle: gum acacia).

`CC[PH+](CC)CC[S-].CC[PH+](CC)CC[S-].[Au+].[Au+]`: the T/C was 109 % of control under setting [7]; 112 % of control under setting [8]; 118 % of control under setting [9]; 112 % of control (dose: 20.0 mg/kg/injection, schedule: Q01DX009 (ip), vehicle: Klucel (hydroxypropylcellulose) (HPC)); 110 % of control (dose: 40.0 mg/kg/injection, schedule: Q01DX009 (ip), vehicle: Klucel (hydroxypropylcellulose) (HPC)).

`CCN(CC)C(=O)c1ccc(C(Cl)(Cl)Cl)cc1`: the T/C runs as follows: under setting [1], 95 % of control; under setting [2], 98 % of control; under setting [11], 90 % of control and 92 % of control.

`CCCCCCCCC(=O)NCCCOC`: the T/C was 107 % of control (dose: 100.0 mg/kg/injection, schedule: Q04DX003 (ip), vehicle: Klucel (hydroxypropylcellulose) (HPC)); 101 % of control (dose: 200.0 mg/kg/injection, schedule: Q04DX003 (ip), vehicle: Klucel (hydroxypropylcellulose) (HPC)); 93 % of control (dose: 400.0 mg/kg/injection, schedule: Q04DX003 (ip), vehicle: Klucel (hydroxypropylcellulose) (HPC)).
